# Patent publication US20190100761A1, “COMPOSITIONS AND METHODS FOR ENHANCED GENE EXPRESSION AND VIRAL REPLICATION” (priority 2016, published 2019)
# Assays:
# [1] = tested on: IAV; details: literature report; cited from earlier work
# [2] = tested on: CEM-SS cells
# [3] = tested on: m^6A addition to mRNA substrates; details: by blocking the hydrolysis of S-adenosylhomocysteine; literature; cited from earlier work
# [4] = tested on: m^6A levels in total poly(A)+ RNA; type: cell-based, human; details: 50 μM DAA, CEM-SS cells, dot blot
# [5] = tested on: RSV; details: literature report; cited from earlier work
# [6] = tested on: HIV-1 NL4-3; type: cell-based; details: 50 μM DAA, CEM-SS cells, Western at 72 hpi
# [7] = tested on: HIV-1; details: literature report; cited from earlier work
smiles,measurement,setting,value
"Nc1nccc2c1ncn2[C@@H]1O[C@H](CO)[C@@H](O)[C@H]1O [DAA, 3-deazaadenosine]",replication of IAV,[1],inhibit the replication
same,cell growth or viability,"[2]; 50 μM DAA, four day treatment period, CEM-SS cells",did not reduce cell growth or viability
same,total level of cellular protein (BCA assay) in HIV-1 infected cultures,"[2]; presence or absence of DAA, CEM-SS cell pellets",similar
same,m^6A addition to mRNA substrates,[3],block m^6A addition
same,m^6A levels in total poly(A)+ RNA,[4],significant decline
same,replication of RSV,[5],inhibit the replication
same,replication of HIV-1,[6],effectively inhibited
same,replication of HIV-1,[7],inhibit the replication
